# Experimental data published in US11667629B2, “Isoxazole derivative, preparation method therefor, and use thereof” (SICHUAN KELUN-BIOTECH BIOPHARMACEUTICAL CO., LTD., priority 2017, dated 2023).
# Legend:
# FXR [1] = target: T1, FXR (Homo sapiens, UniProt Q96RI1); assay: Bile acid receptor FXR coactivator binding assay (LanthaScreen TR-FRET); format: biochemical
# T1 construct: purchased Invitrogen
# Protocol: The Invitrogen⋅LanthaScreen™ TR-FRET Farnesoid X Receptor Coactivator Assay kit was employed to determine the activation effect of the compounds on FXR.
# After the receptor was incubated with the test compound at various concentrations at room temperature, the fluorescent-labeled coactivator short peptides and terbium-labeled antibody were added, and the FRET signal was detected after the reaction was complete at room temperature. The group without the receptor protein was employed as a blank, the activation effect (EC50) and maximum activation effect signal value (Emax) of the test compounds on FXR were calculated according to the four-parameter fitting equation: y=E min+(E max−E min)/(1+(x/EC50)^(−Hillslope))
# FXR [2] = target: T2, FXR (Homo sapiens, UniProt Q96RI1); assay: Luciferase reporter gene assay (HEK293 cotransfected with FXR and human BSEP luciferase reporter); format: cell-based
# T2 construct: expressed in transfected cells; host or cells: HEK293
# T2 sequence (Q96RI1 1-486): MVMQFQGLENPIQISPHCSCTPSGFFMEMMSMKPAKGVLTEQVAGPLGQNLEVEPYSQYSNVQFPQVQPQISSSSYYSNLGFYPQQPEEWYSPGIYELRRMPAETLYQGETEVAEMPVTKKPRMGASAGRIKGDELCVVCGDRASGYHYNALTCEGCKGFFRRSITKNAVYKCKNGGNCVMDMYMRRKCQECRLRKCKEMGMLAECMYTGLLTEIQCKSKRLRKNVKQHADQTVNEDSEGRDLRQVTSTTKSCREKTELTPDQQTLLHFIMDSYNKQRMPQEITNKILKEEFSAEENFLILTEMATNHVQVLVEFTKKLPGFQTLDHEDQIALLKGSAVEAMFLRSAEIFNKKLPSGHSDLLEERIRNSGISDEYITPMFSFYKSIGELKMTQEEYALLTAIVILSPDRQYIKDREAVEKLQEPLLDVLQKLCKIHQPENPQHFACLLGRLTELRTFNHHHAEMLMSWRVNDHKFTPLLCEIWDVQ
# Protocol: Human embryonic kidney cells HEK293 were cultured in a DMEM medium containing 10% FBS. Plasmids were cotransfected to allow the cells to have over expression of FXR and human BSEP luciferase reporter genes. The transfected cells were digested, resuspended, counted, and plated in a multi-well plate. 10 μL of the test compound at various concentrations was added to the multi-well plate to result in final concentrations of 64 μM, 16 μM, 4 μM, 1 μM, 0.25 μM, 0.0625 μM, 0.0156 μM, 0.0039 μM, 0.000975 μM, 0.000244 μM, 0 μM, and the final concentration of DMSO was 0.5%. After the test compound was incubated with the cells for 18 hours, the Brigh-Glo™ detection reagent was added, and the chemical light unit value (RLU) was detected by a multifunctional automatic microplate reader. Taking the signal value of the blank well (without the test compound) as 100%, the relative signal percentage (%) at each concentration of the test compound was calculated. The SigmaPlot 10 software was employed to fit the EC50 and the maximum activation effect Emax (relative signal percentage) of the test compounds using a four-parameter model.
# [3] = Liver microsomal stability test, rat; format: in vitro ADME; settings: liver microsomes; rat liver microsome, 1 μM compound, 0.5 mg/mL, NADPH
# Protocol: (§1) The test compound (50 μL) was mixed with the liver microsome (100 μL) of each species, after pre-incubation at 37° C. for 5 minutes, NADPH (50 μL) was added, and the incubation was performed for 0, 30, and 60 minutes. The incubation concentrations of the test compound, NADPH, and liver microsomal enzyme were 1 μM, 1 mM, and 0.5 mg/mL, respectively. Ice-cold acetonitrile (200 μL) was added to stop the reaction, and an appropriate volume of the internal standard was then added. After the vortex and centrifugation process, the supernatant was obtained and detected.
# (§2) LC-MS/MS, wherein the mass spectrometer was API 5500, and the liquid chromatograph was Shimadzu LC-30AD system. The chromatographic column was Hypersil GOLD C18, 1.9 μm particle size, 50×2.1 mm; mobile phase A was water+0.1% formic acid, phase B was acetonitrile; flow rate was 0.55 mL/min, and column temperature was 40° C. The ion source was an ESI source positive ion mode, and the scanning mode is multiple reaction monitoring (MRM).
# (§3) By determining the concentrations of the samples at different incubation time, the rate constant was obtained by plotting “Ln (amount of the remained drug %)” versus “incubation time”. The half-life and liver clearance rate of the drug were then calculated, and were used to evaluate the metabolic stability of the drug in liver microsome.
# [4] = Liver microsomal stability test, mouse; format: in vitro ADME; settings: liver microsomes; mouse liver microsome, 1 μM compound, 0.5 mg/mL, NADPH
# Protocol: as §1, §2, §3
# [5] = Liver microsomal stability test, dog; format: in vitro ADME; settings: liver microsomes; dog liver microsome, 1 μM compound, 0.5 mg/mL, NADPH
# Protocol: as §1, §2, §3
# [6] = Liver microsomal stability test, human; format: in vitro ADME
# Protocol: as §1, §2, §3
compound,measurement,setting,value
"O=C(O)c1ccc(-c2csc(N3[C@@H]4CC[C@H]3C[C@@H](OCc3c(-c5ccccc5OC(F)(F)F)noc3C3CC3)C4)n2)cc1C(F)(F)F [Compound C46, 4-(2-((1R,3r,5S)-3-((5-cyclopropyl-3-(2-(trifluoromethoxy)phenyl)isoxazol-4-yl)methoxy)-8-azabicyclo[3.2.1]octan-8-yl)thiazol-4-yl)-2-(trifluoromethyl)benzoic acid]",EC50,"FXR [1]; TR-FRET coactivator assay, four-parameter fit, read-out: EC50 of the compounds on FXR",2 ± 1 nM
same,Emax,FXR [1]; read-out: Relative activation effect,196%
same,EC50,"FXR [2]; HEK293, 18 hours incubation",14 ± 5 nM
same,Emax,"FXR [2]; HEK293, maximum activation effect, relative signal percentage, blank well = 100%",301%
same,CLint scaled at 1 μM,[3],0.96 mL/min/kg
same,half-life at 1 μM,[3],16.1 h
same,CLint scaled at 1 μM,[4],15.3 mL/min/kg
same,half-life at 1 μM,[4],2.5 h
same,CLint scaled at 1 μM,[5],8.03 mL/min/kg
same,half-life at 1 μM,[5],4.32 h
same,clearance rate in human liver microsome,[6],14.9 mL/min/kg
